{
  "source": "patent US20230234920A1",
  "about": "“Azirine Containing Compounds as Anti-Angiogenesis Agents and a Process for the Preparation Thereof” (COUNCIL OF SCIENTIFIC & INDUSTRIAL RESEARCH, priority 2020, published 2023)",
  "key": {"ECs": {"system": "ECs", "assay": "Post tubule formation assay (disruption of preformed tubules)", "type": "cell-based, human", "details": "treatment of already formed tubule", "protocol": "FIG. 3 represents effect of Compound 1 on post tubule formation by ECs. (A) ECs were incubated with indicated different concentrations of compound 1 along with VEGF (50 ng/mL) and sunitinib (50 nM) after 6 h of treatment to the already formed tubule. Post treatment photographs were taken at using an inverted microscope at 10×magnification."}, "HUVECs": {"system": "HUVECs", "assay": "Wound healing (scratch) migration assay", "type": "cell-based, human", "details": "for wound closure: 12 h", "protocol": "FIG. 4 represents In vitro wound closure assay showing effect of Compound 1 migration of HUVECs. (A) ECs were incubated with 2.5% FBS in the presence of VEGF, sunitinib and Compound 1 at the indicated concentrations for 24 h after linear scratched wounds were created in the confluent cells. Post treatment photographs were taken at 0 hr, 12 h and 24 h using an inverted microscope at 10×magnification. (B) Data were quantified using Image J software and graphs were plotted by calculating the % migration of that vehicle treated cells (control). Compound 1 inhibits the wound closure by ECs in a dose dependent manner. The values represent the mean±SEM from (n=3) independent experiments with significant difference compared from control at *p<0.05.\nAs per previous reports, some anti-angiogenic compounds also show anti-migratory effect by modulating the expression of proteins responsible for blood vessels formation. A Scratch was made to the confluent endothelial cells containing VEGF (50 ng/mL) and sunitinib (50 nM) as a positive and negative control respectively and Compound 1 at 250 nM and 125 nM as a test compound. […] This might contribute to its potent anti-angiogenic effect.\nEndothelial cells were grown inside 6-well plate at a confluency rate of 90%. And then with the help of 200 μL tip a straight line scratch was made in the middle of the grown ECs. After giving a gentle wash with 1×PBS, control group received vehicle in 2.5% FBS media. VEGF at 50 ng/mL as a positive control and sunitinib at 50 nM concentration was used as a negative control. Compound 1 at a dose concentration of 250 nM and 125 nM were used onto the wounded cells to observe its anti-migratory effect. After 0 h, 12 h and 24 h of post treatment the wound closure area was observed and micrographed using an inverted microscope (Olympus, Centre Valley, Pa., USA) and were analysed by Image J software. Control well at 100% was used to express inhibition percentage and the assay was performed for three-five times independently."}, "chick CAM": {"system": "chick CAM", "assay": "CAM (chick chorio-allantoic membrane) assay", "type": "in vivo", "details": "500 nM and 250 nM", "protocol": "(A) Chick CAM assays were used to observe the effect of Compound 1 on angiogenesis in vivo. 1 mm^2 window was made in 8 days old chicken eggs to expose the CAM, and a gelatin disc ([…]) treated with vehicle (0.1% DMSO), sunitinib and Compound 1 at a indicated concentrations were placed on the CAM surface. Post 4 days of incubation, the discs and associated CAM were photographed and excised out, for hemoglobin estimation by drapkin's reagent. (B) Blood vessel density was calculated and Hb. concentration was measured and representative graph was plotted for the control and treatment group and data are represented as mean±SEM with significant difference from control at *p<0.05, **p<0.01 and ***p<0.001.\nThe eggs were incubated horizontally for 3 days at 37° C. in a 60% humidified atmosphere, using a hybridization incubator (combi-SV 12) with one hour scheduled rotation. Post 3 days of incubation, 2-3 mL of albumin was aspirated from the acute pole of the egg to create false air sac directly over the CAM. Post fertilization (Day 8), a fine blade was used to make an approximate 0.5 cc square incision on the eggshell under sterile conditions and the eggshell window fragment was removed to access the CAM beneath. A piece of gelatin sponge embedded in Compound 1 (500 nM and 250 nM) and sunitinib (2 μM) individually were placed on the CAM of the chicken embryo and incubated for 12 days. Sterile parafilm tape was used to seal back the window and the eggs were further incubated without the rotation setting. After 12 days of incubation the CAM integration was assessed by visual inspection and photographed with a digital camera (Canon EOS); the CAM membrane along with gelatin sponge were harvested and its hemoglobin (Hb.) estimation was done by Drabkin's method according to the manufacturer's protocol (Sigma, St. Louis, Mo.). Absorbance was measured at 540 nm and hemoglobin concentration was calculated."}, "Balb/c mice": {"system": "Balb/c mice", "assay": "Matrigel plug assay", "type": "in vivo", "protocol": "(A) Post 7 days treatment of control (0.1% DMSO), sunitinib and Compound 1 at a given concentration, the mice was sacrificed and representative Matrigel plugs were excised and photographed. (B) Hemoglobin estimation was performed using drapkin's reagent and graph was plotted with data that are represented as mean±SEM from three independent experiments with significant difference from control at *p<0.05 using t-test analysis.\nCompound 1 ability to modulate neovascularization was evaluated by matrigel plug assay, using mouse-VEGF and bFGF (R&D systems, Minneapolis) as stimulus. 300 μL of matrigel (Corning Inc., Corning, N.Y., USA) were allowed to liquefy at 4° C., supplemented with either VEGF […], bFGF […] and heparin (10 mg/mL) as a control or with sunitinib […] as a positive control. All groups and test groups having similar condition along with Compound 1 (750 nM) were carefully mixed with pre-chilled pipette tips to prevent aeration and gelatinization. […] Matrigel plugs were excised after photographs were taken and angiogenic response was evaluated by spectrophotometric measurement of hemoglobin content using the Drabkin's method according to the manufacturer's protocol (Cat no. D5941-6VL; Sigma, St. Louis, Mo.). Absorbance was measured at 540 nm and hemoglobin concentration was calculated."}, "[1]": {"system": "MDA-MB 468 triple negative breast cancer", "assay": "MDA-MB 468 xenograft mouse model", "type": "in vivo, nude mice", "source_text": "FIG. 13 represents Effect of Compound 1 on triple negative breast cancer celline MDA-MB 468 in xenograft mouse model.\nA nude mice model bearing orthotopic HCT116 colon tumor or MDA-MB 468 was used to evaluate the anti-tumor angiogenesis effect of Compound 1 in vivo (FIG. 12). […] To investigate the effects of Compound 1 on angiogenesis and molecular targets in vivo, we examined the expression level of endothelial-specific marker (CD31) in tumor samples."}},
  "data": [
    {"smiles": "CCOC(=O)C1N=C1CCc1ccc(OC)cc1", "note": "(racemic) [Compound 1, Ethyl 3-(4-methoxyphenethyl)-2H-azirine-2-carboxylate]", "values": [
      {"measurement": "disruption of preformed tubules", "setting": "ECs", "result": "could not be able to disrupt the preformed tubules"},
      {"measurement": "wound closure", "setting": "HUVECs; 125 nM", "result": 75, "unit": "%"},
      {"measurement": "wound closure", "setting": "HUVECs; 250 nM", "result": 60, "unit": "%"},
      {"measurement": "migration", "setting": "HUVECs; 24 h", "result": "complete migration"},
      {"measurement": "blood vessels density", "setting": "chick CAM", "result": "suppressed blood vessels density"},
      {"measurement": "hemoglobin content", "setting": "chick CAM", "result": "50 to 60", "unit": "µg/mL"},
      {"measurement": "blood vessels formation through implanted Matrigel", "setting": "Balb/c mice; 750 nM", "result": "significant reduction in blood vessels formation"},
      {"measurement": "hemoglobin concentration", "setting": "Balb/c mice; 750 nM in Matrigel", "result": "10 to 15", "unit": "µg/mL"},
      {"measurement": "tumor growth", "setting": "[1]; 25 mg/kg", "result": "regresses tumor growth similar to that of sunitinib"},
      {"measurement": "tumor growth", "setting": "[1]; 40 mg/kg", "result": "regresses tumor growth better than the standard compound sunitinib"}
    ]}
  ]
}
